Test results: ChEMBL document CHEMBL1201862, “PubChem BioAssay data set” (2004)
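Cells were grown in 96-well plates and exposed to each compound for 48 hours at five concentrations; endpoints were interpolated linearly between bracketing concentrations, or set to the highest concentration if not reached. GI50 is the concentration that inhibits growth by half.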 The source made the active and inactive calls. No stated cut-off is given here; in the data, active = GI50 up to about 1.1 µM and inactive = higher.

Legend:
Assay in all cases: inhibition of tumour cell growth, NCI panel, 48 h
HCC 2998 = test system: HCC 2998
RPMI-8226 = test system: RPMI-8226
HT-29 = test system: HT-29
EKVX = test system: EKVX
M14 = test system: M14
SF-268 = test system: SF-268
HOP-62 = test system: HOP-62
MOLT-4 = test system: MOLT-4
SN12C = test system: SN12C
U-251 = test system: U-251
NCI-H460 = test system: NCI-H460
RXF 393 = test system: RXF 393
OVCAR-8 = test system: OVCAR-8
K562 = test system: K562
HL-60 = test system: HL-60
SF-295 = test system: SF-295
SK-MEL-2 = test system: SK-MEL-2
TK-10 = test system: TK-10
PC-3 = test system: PC-3
DU-145 = test system: DU-145

Measured: GI50

O=C1CCC(=O)C1=NNc1cc(Cl)cc(Cl)c1
inactive: HCC 2998 > 100 µM | RPMI-8226 32.7 µM | HT-29 > 100 µM | EKVX > 100 µM | M14 > 100 µM | SF-268 > 100 µM | HOP-62 > 100 µM | MOLT-4 53.8 µM | SN12C > 100 µM | U-251 69.2 µM | NCI-H460 71.8 µM | RXF 393 > 100 µM | OVCAR-8 > 100 µM | K562 > 100 µM | HL-60 63.5 µM | SF-295 > 100 µM | SK-MEL-2 > 100 µM | TK-10 > 100 µM

CN(C)c1ccc(/C=c2\sc3nnc(-c4ccco4)n3c2=O)cc1
inactive: HCC 2998 > 100 µM | RPMI-8226 > 100 µM | EKVX > 100 µM | M14 > 100 µM | SF-268 > 100 µM | HOP-62 > 100 µM | MOLT-4 > 100 µM | SN12C > 100 µM | U-251 57.8 µM | NCI-H460 > 100 µM | RXF 393 > 100 µM | OVCAR-8 > 100 µM | K562 > 100 µM | HL-60 > 100 µM | SF-295 > 100 µM | SK-MEL-2 > 100 µM | TK-10 > 100 µM

COc1nc(NC2OC(COC(C)=O)C(OC(C)=O)C(OC(C)=O)C2OC(C)=O)c2c(OC(C)=O)c(C)c(=O)oc2n1 (stereo not given)
inactive: HCC 2998 > 100 µM | RPMI-8226 > 100 µM | HT-29 > 100 µM | EKVX > 100 µM | M14 > 100 µM | HOP-62 > 100 µM | MOLT-4 > 100 µM | SN12C > 100 µM | U-251 > 100 µM | NCI-H460 1.67 µM | RXF 393 > 100 µM | OVCAR-8 > 100 µM | K562 > 100 µM | HL-60 > 100 µM | SF-295 > 100 µM | SK-MEL-2 > 100 µM | TK-10 > 100 µM

COC(=O)C(=O)C(C(=O)C=C(C)C)C(=O)C(=O)Nc1ccc(C)cc1C (stereo not given)
inactive: HCC 2998 > 100 µM | RPMI-8226 > 100 µM | HT-29 > 100 µM | EKVX > 100 µM | M14 > 100 µM | SF-268 > 100 µM | HOP-62 > 100 µM | MOLT-4 > 100 µM | SN12C > 100 µM | U-251 > 100 µM | NCI-H460 > 100 µM | RXF 393 > 100 µM | OVCAR-8 > 100 µM | K562 > 100 µM | HL-60 > 100 µM | SF-295 > 100 µM | SK-MEL-2 > 100 µM | TK-10 > 100 µM

O=c1[nH]c2cc3cccnc3c(Cl)c2nc1CBr
inactive: RPMI-8226 6.05 µM | HT-29 19.5 µM | EKVX 16.1 µM | M14 13.5 µM | SF-268 22.2 µM | PC-3 15.7 µM | HOP-62 15.5 µM | MOLT-4 8.97 µM | DU-145 15.6 µM | SN12C 14 µM | U-251 15.4 µM | NCI-H460 19 µM | RXF 393 17.7 µM | OVCAR-8 17.9 µM | K562 12.1 µM | HL-60 20.3 µM | SF-295 21.6 µM | TK-10 21.7 µM

CC(/C=C/C(=O)c1sc(C(N)=S)nc1C)=C\c1ccccc1
inactive: HCC 2998 > 100 µM | RPMI-8226 19.3 µM | HT-29 > 100 µM | EKVX > 100 µM | M14 > 100 µM | SF-268 > 100 µM | HOP-62 > 100 µM | MOLT-4 > 100 µM | SN12C > 100 µM | U-251 > 100 µM | NCI-H460 35.4 µM | RXF 393 > 100 µM | OVCAR-8 > 100 µM | K562 > 100 µM | HL-60 > 100 µM | SF-295 > 100 µM | SK-MEL-2 > 100 µM | TK-10 > 100 µM

COC(=O)/C=C(\C(=O)OC)c1c2c3c(cc(OC)c(OC)c3c3ccccc13)CCN2C
inactive: HCC 2998 33.7 µM | RPMI-8226 26.8 µM | HT-29 38.5 µM | EKVX 64.6 µM | M14 78.7 µM | SF-268 > 100 µM | HOP-62 25.1 µM | MOLT-4 24.1 µM | SN12C 58.6 µM | U-251 39 µM | NCI-H460 35.9 µM | RXF 393 8.79 µM | OVCAR-8 45.7 µM | K562 26.2 µM | HL-60 17.9 µM | SF-295 78.9 µM | SK-MEL-2 35.4 µM | TK-10 48.4 µM

CC1CC[P+](c2ccccc2)(c2ccccc2)CC1
inactive: HCC 2998 20.8 µM | RPMI-8226 21.2 µM | HT-29 79.3 µM | EKVX 68.7 µM | M14 88.1 µM | HOP-62 > 100 µM | MOLT-4 > 100 µM | SN12C > 100 µM | U-251 30.5 µM | NCI-H460 > 100 µM | RXF 393 > 100 µM | OVCAR-8 > 100 µM | K562 91.6 µM | HL-60 24.5 µM | SF-295 > 100 µM | SK-MEL-2 77.3 µM | TK-10 > 100 µM

CC/C(=N\NS(=O)(=O)c1ccccc1)c1ccccc1
inactive: HCC 2998 > 100 µM | RPMI-8226 > 100 µM | HT-29 > 100 µM | EKVX > 100 µM | M14 > 100 µM | SF-268 > 100 µM | HOP-62 > 100 µM | MOLT-4 > 100 µM | SN12C > 100 µM | U-251 > 100 µM | NCI-H460 > 100 µM | RXF 393 > 100 µM | OVCAR-8 > 100 µM | K562 > 100 µM | HL-60 > 100 µM | SF-295 > 100 µM | SK-MEL-2 > 100 µM | TK-10 > 100 µM

COc1cc2[nH]c3c(c2cc1OC)CCN[C@]31CC[C@]2(CC3c4c(cc(OC)c(O)c42)CCN3C)C[C@H]1OC (stereo not given in full)
inactive: HCC 2998 15.2 µM | RPMI-8226 15.2 µM | HT-29 22.3 µM | EKVX 55.7 µM | M14 15.7 µM | SF-268 25.5 µM | HOP-62 21.8 µM | MOLT-4 12.9 µM | SN12C 21 µM | U-251 18 µM | NCI-H460 23.8 µM | RXF 393 3.04 µM | OVCAR-8 19.6 µM | K562 11.6 µM | HL-60 11.6 µM | SF-295 20.5 µM | TK-10 21.6 µM

NS(=O)(=O)c1nnc(NS(=O)(=O)c2ccccc2C(=O)O)s1
inactive: HCC 2998 > 100 µM | RPMI-8226 > 100 µM | HT-29 > 100 µM | EKVX > 100 µM | M14 > 100 µM | SF-268 > 100 µM | HOP-62 > 100 µM | MOLT-4 76.7 µM | DU-145 > 100 µM | SN12C > 100 µM | U-251 > 100 µM | NCI-H460 > 100 µM | RXF 393 > 100 µM | OVCAR-8 > 100 µM | K562 40.7 µM | SF-295 > 100 µM | SK-MEL-2 > 100 µM | TK-10 > 100 µM

N=C(N)NCCCC(NC(=O)c1cccc2c(=O)c3ccccc3[nH]c12)C(=O)O (stereo not given)
inactive: RPMI-8226 > 100 µM | HT-29 > 100 µM | EKVX > 100 µM | M14 > 100 µM | SF-268 > 100 µM | PC-3 > 100 µM | HOP-62 > 100 µM | MOLT-4 > 100 µM | DU-145 > 100 µM | SN12C > 100 µM | U-251 > 100 µM | OVCAR-8 > 100 µM | K562 > 100 µM | HL-60 > 100 µM | SF-295 > 100 µM | SK-MEL-2 > 100 µM | TK-10 > 100 µM

O=C1Cc2c([nH]c3ccccc23)-c2cc(Br)ccc2N1
inactive: HCC 2998 > 100 µM | RPMI-8226 > 100 µM | HT-29 > 100 µM | EKVX > 100 µM | M14 > 100 µM | SF-268 > 100 µM | HOP-62 > 100 µM | MOLT-4 > 100 µM | SN12C > 100 µM | U-251 > 100 µM | NCI-H460 > 100 µM | RXF 393 > 100 µM | OVCAR-8 > 100 µM | K562 > 100 µM | HL-60 > 100 µM | SF-295 > 100 µM | SK-MEL-2 > 100 µM | TK-10 > 100 µM

COc1ccc2[nH]c3c(cnn4cnnc34)c2c1
inactive: HCC 2998 > 100 µM | RPMI-8226 > 100 µM | HT-29 > 100 µM | EKVX 23.3 µM | M14 > 100 µM | SF-268 > 100 µM | HOP-62 > 100 µM | MOLT-4 > 100 µM | SN12C > 100 µM | U-251 > 100 µM | NCI-H460 > 100 µM | RXF 393 > 100 µM | OVCAR-8 > 100 µM | K562 > 100 µM | HL-60 > 100 µM | SF-295 > 100 µM | SK-MEL-2 > 100 µM | TK-10 > 100 µM

COc1ccc(/C=C/c2cc(OC)cc(OC)c2)cc1 [TRISMETHOXYRESVERATROL]
inactive: HCC 2998 9.79 µM | RPMI-8226 3.56 µM | HT-29 3.88 µM | EKVX > 22.4 µM | M14 6.53 µM | SF-268 7.93 µM | HOP-62 4.92 µM | MOLT-4 4.51 µM | SN12C 9.95 µM | U-251 4.06 µM | NCI-H460 3.73 µM | RXF 393 3.05 µM | OVCAR-8 22.1 µM | K562 4.33 µM | HL-60 2.56 µM | SF-295 4.38 µM | SK-MEL-2 6.07 µM | TK-10 12.6 µM
